Legend:
[1] = DSC/XRPD of binary mixtures of isometheptene mucate and mannitol (eutectic formation); assay type: physicochemical; details: binary mixtures at different ratios
Protocol: Because mannitol is a common excipient in solid drug formulations, it was examined for compatibility with racemic isometheptene mucate and investigated using DSC and the interactions occurring were assessed. […] To confirm the formation of a eutectic and to characterize its physical properties, several binary mixtures at different ratios of racemic isometheptene mucate and excipient were prepared and analyzed by DSC and by XRPD. The eutectic formation improved the cohesion between the racemic isometheptene mucate and excipient particles and assured better physical linking between the two.
In order to confirm the eutectic formation and to characterize its physical properties, several binary mixtures at different ratios of racemic isometheptene mucate-excipient were prepared and analyzed by DSC and by X-ray powder diffraction (XRPD). […] For each DSC heating curve, the onset temperature and the enthalpy were evaluated both for the eutectic contribute and for the excess of component. The recorded values were plotted and a phase diagram between the two components was obtained with a characteristic profile of phase diagrams of eutectic mixtures. […]
Aliquots of racemic isometheptene mucate API and mannitol were weighed in the ratios described below and ground in an agate mortar, and the homogeneous mixtures subsequently analyzed. […]

mice [2] = assay: Formalin Test, late phase (licking score); assay type: in vivo; details: mouse, 5% formalin intraplantar, three doses p.o. 15 minutes before the test, 15-50 min after formalin
Excerpt: Common mouse models for pain include the Formalin Test (Wheeler-Aceto, et al., Psychopharmacology, 104, 35-44, 1991), the Hot Plate Test (Eddy and Leimbach, J. Pharmacol. Exp. Ther., 107, 385-393, 1953), and the Tail-flick Test (D'Amour and Smith, J. Pharmacol. Exp. Ther., 1, 74-79, 1941). These methods detect analgesic activity of compositions of interest. In the Formalin Test, mice are given an intraplantar injection of 5% formalin into one posterior hindpaw to induce paw licking. Test compositions are given to the mice before treatment with formalin and the mice are evaluated and compared to a control group. In the Hot Plate Test, mice are placed onto a hot metal plate maintained at 54° C. and the latency to the first foot-lick is measured. As with the Formalin test, compositions of interest are given to the mice before the test and the mice are evaluated and compared to a control group. In the Tail-flick Test, a mouse's tail is heated by means of a thermal light source, and the latency before the animal withdraws its tail is measured. […]
Mice were given an intraplantar injection of 5% formalin (25 μL) into one posterior hindpaw. […] Mice were briefly observed at one minute intervals between 15 and 50 minutes after the injection of formalin and the number of occasions that the mice were observed licking the injected paw was recorded. […]

mice [3] = assay: Tail-flick Test; assay type: in vivo; details: mouse
Excerpt: Common mouse models for pain include the Formalin Test (Wheeler-Aceto, et al., Psychopharmacology, 104, 35-44, 1991), the Hot Plate Test (Eddy and Leimbach, J. Pharmacol. Exp. Ther., 107, 385-393, 1953), and the Tail-flick Test (D'Amour and Smith, J. Pharmacol. Exp. Ther., 1, 74-79, 1941). These methods detect analgesic activity of compositions of interest. In the Formalin Test, mice are given an intraplantar injection of 5% formalin into one posterior hindpaw to induce paw licking. Test compositions are given to the mice before treatment with formalin and the mice are evaluated and compared to a control group. In the Hot Plate Test, mice are placed onto a hot metal plate maintained at 54° C. and the latency to the first foot-lick is measured. As with the Formalin test, compositions of interest are given to the mice before the test and the mice are evaluated and compared to a control group. In the Tail-flick Test, a mouse's tail is heated by means of a thermal light source, and the latency before the animal withdraws its tail is measured. Test compositions are administered before the test, and compared with a vehicle control group. The analgesic activity of the compositions described herein can be identified using the mouse formalin, hot plate, and tail-flick tests.
A method for detecting analgesic activity followed that described by D'Amour and Smith (J. Pharmacol. Exp. Ther., 1, 74-79, 1941). The mouse's tail was heated by means of a thermal light source (20 volts). The latency before the animal withdraws its tail was measured (maximum: 15 seconds).
Ten mice were studied per group. The test was performed partially blind.
The test substances selected from (R)-isometheptene mucate, and (S)-isometheptene mucate were evaluated at three doses ([…]), administered p.o. 15 minutes before the test, and compared with a vehicle control group. […]
Data with the test substance were analyzed by comparing treated groups with vehicle control using ANOVA followed by post-hoc Dunnett's tests. Data with the reference substance were analyzed using unpaired Student's t tests.

CN[C@H](C)CCC=C(C)C [(R)-isometheptene mucate]
Interaction with mannitol (eutectic vs adduct) [1]: only a physical eutectic formation | Licking score compared to vehicle (mice [2]): reduction in licking score | Tail-flick activity relative to morphine (mice [3]; 100 mg/kg p.o. versus morphine 32 mg/kg): activity similar to that of morphine | Tail flick latency compared to vehicle (mice [3]; thermal light source, three doses (10, 30, 100) p.o. 15 minutes before the test): longer tail flick latency times

From patent US20150258197A1, “EUTECTIC ISOMETHEPTENE MUCATE” (TONIX PHARMA HOLDINGS LIMITED, priority 2014, published 2015)
